Source: US20140309295A1, “ANTIEPILEPTIC, HYPOCHOLESTEROLEMIC AND NEUROPROTECTIVE COMPOUND” (NEURON BIOPHARMA, S.A., priority 2009, published 2014)

Assays:
[1] = system: human neuroblastoma SK-N-MC cells; assay: Protection against neuronal death induced by apoptosis (camptothecin), WST-1; assay type: cell-based; conditions: 20 nM camptothecin
Description: The assay was performed on human neuroblastoma SK-N-MC cells in culture from the American Type Culture Collection (ATCC), in all cases strict rules of sterility were followed and the manipulation was performed in class II biological safety cabinets following European standard EN 12469. The cells were maintained in the following culture medium: Minimum Essential Medium Eagle (MEM) supplemented with 1 mM sodium pyruvate, 2 mM L-glutamine, 0.1 mM non-essential amino acids, 0.05 mg/ml gentamicin and 10% fetal bovine serum.
The inhibition caused by compound NST0037 of cell death caused by treatment with camptothecin generating cell cycle arrest was analyzed. Camptothecin is an inhibitor of Topoisomerase I, it therefore prevents DNA duplication and triggers cell cycle arrest and death due to apoptosis. These cells, not exceeding 15 passages, were seeded on 96-well plates treated for adherent cells with a cell concentration of 5×10^4 cells/well; 3 wells of the plate were seeded for each condition of the assay.
After 24 hours of cell incubation at 37° C. and 5% CO2, the cell treatments were performed with 100 μl of total volume for the following conditions: • Control: culture medium (medium) • Camptothecin (CPT): medium plus camptothecin 20 nM, causing death of 50% of the cells. • Camptothecin plus NST0037: medium plus camptothecin (20 nM) plus NST0037 at 1, 4, 10, 20, 40 or 100 μM.
The cells were incubated (at 37° C. and 5% CO2) with these treatments for 22 hours, after which time the WST-1 reagent (Roche) was added. The Test WST-1 is based on the measurement of metabolic activity. Cell damage causes the loss of the ability of cells to obtain the energy necessary to maintain their metabolic functions and cell growth, therefore the metabolically active (live) cells reduce tetrazolium salt to formazan by means of the succinate-tetrazolium reductase system (of the mitochondrial respiratory chain). The formazan which is formed can be detected colorimetrically since it has an absorbance of 440 nm. The reading was taken in a plate reader at 440 nm 2 hours after adding the reagent.

[2] = system: CD1 mice inoculated with MPTP (acute); assay: Acute MPTP model of Parkinson's disease in mice; assay type: in vivo
Description: All the animals included for the experimental process were 12-week old males of the CD1 strain. The experiments were conducted strictly following the Guidance on the Operation of Animals (Scientific Procedures, Act. 1986). The animals had their respective quarantine period and were treated with maximum precaution to minimize possible contaminations during inoculations and handling.
Forty animals were used in this assay and the treatments were conducted with a volume of 100 μl, according to the following regimens: • i) PBS+PBS+PBS regimen: 10 animals were initially treated with PBS with a daily dose for 2 days by subcutaneous (s.c.) route, on the second day the animals were inoculated with 4 doses of PBS, at intervals of 2 hours by intraperitoneal (i.p.) route. For the next 7 days they were administered a daily dose of PBS by s.c. route. • ii) PBS+MPTP+PBS regimen: 10 animals were initially treated with a daily dose for 2 days of PBS by s.c. route, on the second day the animals were inoculated with 4 doses of MPTP at 20 mg/Kg, at intervals of 2 hours by i.p. route. For the next 7 days they were administered a daily dose of PBS by s.c. route. • iii) NST0037+MPTP+NST0037 regimen: 10 animals were initially treated with a daily dose for 2 days of NST0037 at 50 mg/kg by s.c. route, on the second day the animals were inoculated with 4 doses of MPTP at 20 mg/Kg, at intervals of 2 hours by i.p. route. For the next 7 days they were administered a daily dose of NST0037 at 50 mg/kg by s.c. route.
Before starting the treatments and once the treatment time of 7 days ended, the animals were subjected to a locomotor resistance test referred to as the Rotarod test for 2 minutes, recording the time the animals resisted walking over a cylinder which increased its speed from 4 to 40 r.p.m.
Before starting the treatments and once the treatment time of 7 days ended, the animals were subjected to a strength test in the so-called Grip-strength test, recording the strength of gripping a bar in grams exerted by the animals with the front paws in triplicate.
Once the treatment time of 7 days ended, the animals were sacrificed and the brains were dissected. The brain samples were processed and included in paraffin. For the analysis of neurodegeneration in the substantia nigra and the striatum, fluorescent Fluoro Jade B (FJB) staining was performed in 5 μm thick sagittal sections.
Once the treatment time of 7 days ended, the animals were sacrificed and the brains were dissected. The brain samples were processed and included in paraffin. For the analysis of the presence of dopaminergic neurons in the substantia nigra and the striatum, the immunohistochemistry against the tyrosine-hydroxylase (TH) protein was performed in 5 μm thick sagittal sections.

[3] = system: Hep G2 (human hepatocarcinoma) line; assay: Total cholesterol levels in hepatic cell line; assay type: cell-based; conditions: HepG2, acid compounds, 20 hours, absence of FBS
Description: To carry out this assay, the compounds were activated with NaOH until the lactone form was completely opened.
Both the Hep G2 (human hepatocarcinoma) line and the SK-N-MC (human neuroblastoma) line were obtained from the American Type Culture Collection (ATCC no. HB-8065 and HTB-10 respectively). In all cases strict rules of sterility were followed and the manipulation was performed in class II biological safety cabinets following European standard EN 12469. The cells maintained in passage were seeded in 96-well plates in MEM supplemented with 10% FBS, 2 mM L-glutamine, 1 mM sodium pyruvate, 0.1 mM non-essential amino acids and 0.05 mg/mL gentamicin. In the case of HepG2, 4×10^4 cells/well were seeded and in the case of SK-N-MC 5×10^4 cells/well were seeded. After 24 hours had elapsed from the seeding, the cells were deprived of FBS for 8 hours. The cells were then incubated with the treatments at various concentrations for 20 hours. After the incubation period, the cells were washed with PBS and lysed with a phosphate buffer with 0.5% Triton X-100. […]
The total cholesterol was quantified by means of enzymatic and fluorometric techniques. […] The fluorescence intensity was determined at 530 nm of excitation and 580 nm of emission by means of a fluorometer. The results were normalized by protein, which was determined by means of the BCA technique.

[4] = NST0037+MPTP+NST0037, 50 mg/kg s.c., 7 days
[5] = NST0037+MPTP+NST0037 vs PBS+MPTP+PBS, 7 days

CCC(CC)C(=O)O[C@H]1C[C@@H](C)C=C2C=C[C@H](C)[C@H](CC[C@@H]3C[C@@H](O)CC(=O)O3)[C@H]21 [NST0037, (1S,2S,6R,8S,8aR)-1,2,6,7,8,8a-hexahydro-3,7-dimethyl-8-[2-[(2R,4R)-tetrahydro-4-hydroxy-6-oxo-2H-pyran-2-yl]ethyl]-1-naphthalenyl-2-ethyl-butyrate]
protection against death caused by camptothecin ([1]; 4 μM NST0037): 18% | protection against death caused by camptothecin ([1]; 10 μM NST0037): 28% | protection against death caused by camptothecin ([1]; 40 μM NST0037): 27% | protection against death caused by camptothecin ([1]; 100 μM NST0037): 27% | motor resistance (Rotarod test) [2, 4]: prevents the motor deterioration of the animals | strength (Grip-strength test) [2, 4]: prevents the loss of strength induced by MPTP | survival after acute administration of MPTP ([2]; NST0037+MPTP+NST0037, 50 mg/kg s.c., MPTP 4 x 20 mg/Kg i.p.): promotes the survival of the animals | dopaminergic neurons (tyrosine-hydroxylase) in substantia nigra and striatum [2, 5]: larger number of TH-positive cells in the substantia nigra as well as a higher labeling intensity in the striatum | neurodegeneration (Fluoro Jade B) in substantia nigra and striatum [2, 5]: number of cells in degeneration and positive for FJB significantly lower | reduction of total cholesterol levels [3]: more potent than simvastatin
